1 compound from patent US7381433B1, “Compositions containing an extract of a primula denticulata and use thereof” (Johnson & Johnson Consumer Companies, Inc., priority 2007, dated 2008) can be followed below.

The assay relates to sebocytes. The assay can be described thus: In vitro sebocyte lipogenesis assay (Nile red lipid accumulation). Format: cell-based, human.

Consider `CCCCCC1=CC(=O)C=C(OC)C1=O` [Primin, 2-methoxy-6-pentyl-1,4-benzoquinone], for which the Induction of lipogenesis is reported as 17.9% (Primin concentration 0.3 μg/mL), 21.3% (Primin concentration 1.0 μg/mL) and 41.5% (Primin concentration 3.0 μg/mL). Moreover, the “Effect on lipogenesis in sebocytes (in words)” value (summary of Tables 1 and 2) is “has lipogenic activity”.
